Holding throughout (assay type): in vivo, NZB/W F1 mice
Assay [1] deals with accelerated severe lupus nephritis (ASLN) mouse model. In words: Urine protein, hematuria and renal function in ASLN mouse model. How it is done: An accelerated severe lupus nephritis (ASLN) mouse model was established in 8-week-old female NZB/W F1 mice by twice weekly intraperitoneal injection of lipopolysaccharide (LPS, 20 mg/kg body weight) (Sigma, NO, USA) as described in Shui et al., 2007 [51]. Two days after first dose of LPS for the ASLN induction, the mice were divided into two groups of more than 6 mice each and daily administrated with ginsenoside M1 or vehicle (normal saline) via oral gavage till mice sacrificed. 8-Week-old NZB/W F1 female mice (prior to onset of autoantibody production), injected with normal saline, were used as normal controls. All mice were killed at week 5 after disease induction. The tissue specimens of spleen, renal cortical tissue, blood, and urine were collected at the indicated times and stored appropriately before analysis. Urine samples were collected in metabolic cages every week and urine protein levels were measured, and serum samples were collected to measure serum levels of blood urea nitrogen (BUN) and creatinine (Cr) as described previously (Ka, S. M. et al. Decoy receptor 3 ameliorates an autoimmune crescentic glomerulonephritis model in mice. J Am Soc Nephrol 18:2473-2485; 2007).

The test system is the same in assay [2]. Kind of assay: Renal histopathology (H&E) in ASLN mouse model. To be noted: ASLN mice, H&E light microscopy, FIG. 2. The procedure: An accelerated severe lupus nephritis (ASLN) mouse model was established in 8-week-old female NZB/W F1 mice by twice weekly intraperitoneal injection of lipopolysaccharide (LPS, 20 mg/kg body weight) (Sigma, NO, USA) as described in Shui et al., 2007 [51]. Two days after first dose of LPS for the ASLN induction, the mice were divided into two groups of more than 6 mice each and daily administrated with ginsenoside M1 or vehicle (normal saline) via oral gavage till mice sacrificed. 8-Week-old NZB/W F1 female mice (prior to onset of autoantibody production), injected with normal saline, were used as normal controls. All mice were killed at week 5 after disease induction. […]
Renal tissues were formalin-fixed, embedded in paraffin, and sections (3 μm) prepared and stained with hematoxylin and eosin (H&E) for renal histopathology as described previously. Quantitative analysis was performed by optical microscopy (Olympus BX51, Reflected Fluorescence System, Japan). The examination of renal pathology and scoring were performed in a blinded manner by a pathologist, and the severity of renal lesions was scored. The percentage of glomeruli showing proliferation, neutrophil infiltration, crescent formation, fibrinoid necrosis, and periglomerular inflammation was calculated from at least 100 randomly sampled glomeruli.

For assay [3], the system named is anti-dsDNA antibodies. In words: Serum anti-dsDNA antibodies (ELISA) in ASLN mice. The following applies: vs ASLN group, p<0.01, FIG. 3. The procedure:
(§1) An accelerated severe lupus nephritis (ASLN) mouse model was established in 8-week-old female NZB/W F1 mice by twice weekly intraperitoneal injection of lipopolysaccharide (LPS, 20 mg/kg body weight) (Sigma, NO, USA) as described in Shui et al., 2007 [51]. Two days after first dose of LPS for the ASLN induction, the mice were divided into two groups of more than 6 mice each and daily administrated with ginsenoside M1 or vehicle (normal saline) via oral gavage till mice sacrificed. 8-Week-old NZB/W F1 female mice (prior to onset of autoantibody production), injected with normal saline, were used as normal controls. All mice were killed at week 5 after disease induction. The tissue specimens of spleen, renal cortical tissue, blood, and urine were collected at the indicated times and stored appropriately before analysis.
Serum levels of anti-dsDNA antibodies were measured using an anti-mouse dsDNA enzyme-linked immunosorbent assay (ELISA) kit (Alpha Diagnostic, TX, USA) according to the manufacturer's instructions. The absorbance at 450 nm was measured using an ELISA plate reader (Bio-Tek, VT, USA).
(ELISA stands for enzyme-linked immunosorbent assay.)

The subject of assay [4] is renal ROS production. In words: Reactive oxygen species (superoxide anion, DHE labeling) in kidney of ASLN mice. How it is done:
as §1
Kidney in situ superoxide anion production was determined by dihydroethidium (DHE) labeling. Fluorescent images were quantified by counting the percentage of positive nuclei in the total nuclei per kidney cross-section. Superoxide anion levels in serum and kidney tissues were measured as described previously and the results expressed as reactive luminescence units (RLU) per 15 min per milligram dry weight (i.e., RLU/15 min/mg dry weight).

Assay [5] has as its system serum inflammatory cytokines. In words: Serum cytokine detection (Cytometric Bead Array) in ASLN mice. To be noted: vs ASLN group. How it is done: as §1
To detect the level of IFN-γ, MCP-1, IL-12 p70, IL-6, TNF-α and IL-10 in serum by using BD Cytometric Bead Array Mouse Inflammation kit (BD Biosciences), according to the standard protocol, followed by flow cytometry (BD Biosciences).

Assay [6] relates to T cells in splenocytes. Kind of assay: T cell proliferation in splenocytes of ASLN mice (3H-methyl thymidine). To be noted: anti-CD3 stimulated splenocytes, vs ASLN group, p<0.01, FIG. 6. The procedure:
as §1
Splenocytes from the mice were prepared as described previously, then were cultured in triplicate in wells (2.5×10^5 cells/well) in 96-well flat-bottom microtiter plates previously coated overnight at 4° C. with 0.25 μg/ml anti-mouse CD3 (145-2C11) antibodies (BD Biosciences). After 48 h, the cultures were pulsed with […] of ^3H-methyl thymidine (Amersham Pharmacia Biotech, Piscataway, N.J.) and harvested 16-18 h later, and the incorporated ^3H-methyl thymidine was measured using a Top Count (Packard, PerkinElmer, Boston, Mass.) as described previously.

Assay [7] concerns Toll-like receptor (TLR)7 gene expression. Kind of assay: Real-time RT-PCR of renal cortex TLR7 mRNA in ASLN mice. The following applies: normalized to GAPDH, vs ASLN group, p<0.01, FIG. 7. The procedure:
as §1
Renal cortex RNA was extracted using TRIzol reagent (Invitrogen) according to the manufacturer's instructions, and real-time reverse transcription-polymerase chain reaction (RT-PCR) was used to measure Toll-like receptor (TLR)7 gene expression. Real-time quantification was performed using a Bio-Rad iCycler iQ system according to the manufacturer's instructions. Amplifications were normalized to the values for GAPDH using the 2^−ΔCt method.
(Real-time PCR tracks product formation cycle by cycle.)

Consider `CC(C)=CCC[C@](C)(O[C@@H]1OC(CO)[C@@H](O)[C@@H](O)C1O)[C@H]1CC[C@]2(C)C1[C@H](O)CC1[C@@]3(C)CC[C@H](O)C(C)(C)C3CC[C@]12C` (stereo partly drawn) [ginsenoside M1, 20-O-β-D-glucopyranosyl-20(S)-protopanaxadiol], for which the “serum level of BUN” value in assay [1] (ASLN mice, daily oral gavage, vs ASLN group, p<0.05, FIG. 1C) was “significantly decreased”. In addition, the “serum level of creatinine” value in assay [1] (ASLN mice, daily oral gavage, vs ASLN group, p<0.05, FIG. 1D) was “significantly decreased”. Also, the “proteinuria (urine albumin/creatinine ratio)” value in assay [1] (ASLN mice, daily oral gavage, vs ASLN group, FIG. 1A) is recorded as “significantly decreased”. Moreover, the hematuria entry in assay [1] (ASLN mice, daily oral gavage, vs ASLN group, FIG. 1B) was “significantly decreased”. In assay [1] (summary of the ASLN mouse study), the “development of lupus nephritis (overall conclusion)” value is reported as “effective in preventing development of lupus nephritis”. In assay [2] (vs ASLN+vehicle, all p<0.005), the “renal lesions (neutrocyte infiltration, crescent-like formation, periglomerular inflammation, tubular atrophy, proteinaceous casts, fibrinoid necrosis)” value is reported as “greatly decreased”. Besides, the glomerular proliferation result in assay [2] was “mild glomerular proliferation was present”. For the same compound, the “serum anti-dsDNA antibody level” value in assay [3] is “significantly decreased”. For the same compound, the “renal ROS production (superoxide anion levels in renal tissues)” value in assay [4] (vs ASLN group, p<0.01, FIG. 4A) is recorded as “significantly decreased”. Further, the “DHE fluorescence intensity (in situ ROS production in kidney)” value in assay [4] (week 3, FIGS. 4B and 4C) was “very low”; in assay [4] (week 5, FIGS. 4B and 4C) it was “very low”. Also, in assay [5] (p<0.005, FIG. 5B), the “serum MCP-1” value is reported as “significantly decreased”. The “serum IL-12 p70” value in assay [5] (p<0.005, FIG. 5C) is “significantly decreased”. Further, the “serum IL-6” value in assay [5] (p<0.005, FIG. 5D) is “significantly decreased”. In addition, the “serum TNFα” value in assay [5] (p<0.005, FIG. 5E) is “significantly decreased”. In assay [5] (p<0.005, FIG. 5F), the “serum IL-10” value was “significantly decreased”. Further, the “serum IFN-γ” value in assay [5] (p<0.01, FIG. 5A) is “significant decreased”. Moreover, in assay [6], the “proliferation of T cells in splenocytes” value is on record as “significant decreased”. For the same compound, the “renal mRNA levels of TLR7” value in assay [7] was “significantly decreased”.

The values are drawn from patent US9844560B2, “Use of ginsenoside M1 for treating lupus nephritis” (priority 2014, dated 2017).
